Data on 17 compounds can be found in ChEMBL document CHEMBL1130726, “Novel cytokine release inhibitors. Part III: Truncated analogs of tripterine” (Bioorg Med Chem Lett, 1998).

Common to all, as to format: functional
Test [1] is filed under the species Homo sapiens. Description: Inhibitory activity against LPS-stimulated IL-1 beta release from human monocytes.
The species named for test [2] is Homo sapiens. Kind of test: Compound was tested for inhibitory effect on LPS-stimulated IL-1 alpha release from human monocytes.
The species named for test [3] is Homo sapiens. Description: Compound was tested for inhibitory effect on LPS-stimulated IL-6 release from human monocytes.
For test [4], the species on record is Homo sapiens. Kind of test: Compound was tested for inhibitory effect on LPS-stimulated IL-8 release from human monocytes.
The species entered for test [5] is Homo sapiens. Kind of test: Compound was tested for inhibitory effect on LPS-stimulated PGE-2 release from human monocytes.
The species entered for test [6] is Homo sapiens. Kind of test: Compound was tested for inhibitory effect on LPS-stimulated TNF-alpha release from human monocytes.
For test [7], the species on record is Homo sapiens. Description: Compound was tested for inhibitory effect on LPS-stimulated IL-1 beta release from human monocytes.
The species named for test [8] is Homo sapiens. Description: Compound was tested for inhibitory activity against LPS-stimulated IL-1 beta release from human monocytes at concentration 3000 nM.
The species named for test [9] is Homo sapiens. Kind of test: Compound was tested for inhibitory activity against LPS-stimulated IL-1 beta release from human monocytes; 80-700.

The term IC50 denotes the concentration at which inhibition is half-maximal. In the test listed under Homo sapiens [1], `Cc1c(O)c(O)cc2c1CC=C1C(C)(C)C(=O)CCC12C` (stereo not drawn) returned an IC50 of 300 nM.

Turning to `CC1=C(O)C(=O)C=C2C1=CC=C1[C@@]2(C)CC[C@@]2(C)[C@@H]3C[C@](C)(C(=O)O)CC[C@]3(C)CC[C@]12C` [CELASTROL], the IC50 in the test filed under Homo sapiens [1] is 40 nM; in the test filed under Homo sapiens [2], 40 nM; in the test filed under Homo sapiens [3] it was 80 nM; in the test filed under Homo sapiens [4], 210 nM; in the test filed under Homo sapiens [5], 110 nM; in the test listed under Homo sapiens [6], 210 nM. In addition, the IC50 in the test filed under Homo sapiens [7] is 40 nM.

In the test listed under Homo sapiens [1], `CC(=O)Oc1cc2c(c(C)c1OC(C)=O)CC=C1C(C)(C)[C@H](OC(C)=O)CC[C@]12C` displayed an IC50 of 100 nM.

Take `CC(=O)Oc1cc2c(c(C)c1OC(C)=O)C=CC1=C(C)C(=O)CCC12C` (stereo not drawn): the IC50 was 700 nM in the test listed under Homo sapiens [1]; 220 nM in the test listed under Homo sapiens [2]; 400 nM in the test filed under Homo sapiens [3]; 930 nM in the test listed under Homo sapiens [4]; 600 nM in the test listed under Homo sapiens [5]; 500 nM in the test filed under Homo sapiens [6]. In the test listed under Homo sapiens [7], this compound showed an IC50 of 180 nM.

In the test filed under Homo sapiens [1], `COc1cc2c(c(C)c1O)CC=C1C(C)(C)C(=O)CCC12C` (stereo not drawn) yielded an IC50 of 700 nM.

In the test filed under Homo sapiens [1], `CC(=O)Oc1cc2c(c(C)c1OC(C)=O)CC=C1[C@@]2(C)CC[C@H]2OC(=O)C[C@]12C` registered an IC50 of 200 nM.

`CCOC(=O)C[C@@]1(C)C(=O)CC[C@@]2(C)c3cc(OC(C)=O)c(OC(C)=O)cc3CC[C@H]12` yielded an IC50 in the test listed under Homo sapiens [1] of 2200 nM.

In the case of `COc1cc2c(c(C)c1OC)C=CC1=C(C)C(=O)CCC12C` (stereo not drawn), the IC50 in the test listed under Homo sapiens [2] was 130 nM; in the test filed under Homo sapiens [3], 340 nM; in the test listed under Homo sapiens [4], 480 nM; in the test listed under Homo sapiens [5], 450 nM; in the test listed under Homo sapiens [6] it was 190 nM.

In the test filed under Homo sapiens [1], `CC(=O)Oc1cc2c(c(C)c1OC(C)=O)CC(C(C)=O)=C1[C@@]2(C)CC[C@H]2OC(=O)C[C@]12C` returned an IC50 of 900 nM.

`CC(=O)Oc1cc2c(cc1OC(C)=O)[C@]1(C)CC[C@H]3C(C)(C)C(=O)CC[C@]3(C)C1=CC2` returned an IC50 in the test listed under Homo sapiens [1] of 140 nM.

In the case of `CC(=O)Oc1cc2c(c(C)c1OC(C)=O)CC=C1C(C)(C)C(=O)CCC12C` (stereo not drawn), in the test listed under Homo sapiens [1], half-maximal inhibition (IC50) required 200 nM.

The inhibition is how much of the control response was suppressed. In the test filed under Homo sapiens [8], `CC(=O)Oc1cc2c(cc1OC(C)=O)[C@]1(C)CCC(=O)[C@](C)(Cc3ccc(C(=O)O)cc3)[C@H]1CC2` returned an inhibition at 3 µM of 16%.

With `CC(=O)Oc1cc2c(c(C)c1OC(C)=O)CC=C1C(C)(C)C(=O)CC[C@]12C`, half-maximal inhibition in the test listed under Homo sapiens [1] (IC50) required 200 nM.

In the case of `COc1cc2c(c(C)c1OC)CCC(=O)C2C` (stereo not drawn), the IC50 in the test listed under Homo sapiens [2] turned out to be 240 nM; in the test listed under Homo sapiens [3] it was 430 nM; in the test filed under Homo sapiens [4], 1000 nM; in the test filed under Homo sapiens [5] it was 520 nM; in the test filed under Homo sapiens [6] it was 460 nM.

In the case of `CC1=C(O)C(=O)C=C2C1=CC=C1C(C)(C)C(=O)CCC21C` (stereo not drawn), in the test listed under Homo sapiens [9], the IC50 came to 80 nM.

Consider `CC(=O)Oc1cc2c(c(C)c1OC(C)=O)CCC1=C(C)C(=O)CCC12C` (stereo not drawn), for which the IC50 in the test filed under Homo sapiens [1] is 2400 nM; in the test listed under Homo sapiens [2], 100 nM; in the test listed under Homo sapiens [3], 250 nM; in the test listed under Homo sapiens [4] it was 300 nM; in the test filed under Homo sapiens [5], 200 nM; in the test listed under Homo sapiens [6], 190 nM. Further, in the test listed under Homo sapiens [7], 80 nM corresponded to half-maximal inhibition (IC50).

`CC(=O)Oc1cc2c(c(C)c1OC(C)=O)CC=C1[C@@]3(C)CCC(=O)C(C)=C3CC[C@]12C`: the IC50 in the test listed under Homo sapiens [1] came out at 80 nM.
